Reference: patent US20190119357A1, “MESSENGER RIBONUCLEIC ACIDS FOR THE PRODUCTION OF INTRACELLULAR BINDING POLYPEPTIDES AND METHODS OF USE THEREOF” (ModernaTX, Inc., priority 2015, published 2019)

Assays:
[1] = tested on: systemic TF1a xenografts; experiment: Systemic TF1a xenografts in SCID mice (AML model); format: in vivo; conditions: TF1a-SCID; mRNA LNPs 3 mg/kg one time per week, cytarabine 2 mg/kg three times per week, IV, four weeks
Description: LNPs comprising the cationic lipid MC3 were tested using the optimal percentage of PEG-lipid and optimal PEG length (1.5% DSPE, C18, as described in Example 8), for in vivo targeted delivery of SQT-PUMA-BH3 in two different in vivo models of acute myeloid leukemia (AML). One model used systemic TF1a xenografts in SCID mice. The other model used systemic HEL xenografts in SCID mice. Each of these models uses a human erythroleukemia cell line. The HEL erythroleukia cell line is described in, for example, Martin, P. and Papayannopoulou, T. (1982) Science 216:1233-1235. The TF1 erythroleukmia cell line (from which TF1a is derived) is described in, for example, Kitamura, T. et al. (1989) J. Cell. Physiol. 140:323-334. Unless otherwise noted, mRNAs were fully modified with N1-methlypseudouridine to avoid stimulating an innate immune response to said mRNAs when administered in vivo.
In a first set of experiments, TF1a cells stably expressing luciferase (TF1α-luc cells) were implanted systemically in SCID mice. Tumor growth was measured by whole body bioluminescent imaging (BLI) in anaesthetized animals following SC injection of 150 mg/kg D-Luciferin, in an imaging chamber (Spectrum CT). Animals showing an increasing tumor burden at day 12 post-cell implantation were recruited for treatment. […]

[2] = tested on: MCL1; experiment: MCL1 downregulation by Western blotting in Hep3B cells; format: cell-based, human; conditions: 24 hours, sorafenib 10 uM
Description: A first series of experiments was conducted to determine whether specific targeting of MCL1 recapitulates sorafenib synergy with SQT-BH3 in cells in vitro.

[3] = tested on: Hep3B SC tumors; experiment: Combination with sorafenib in SCID mice bearing Hep3B SC tumors; format: in vivo; conditions: Sorafenib 10 mg/kg orally daily alone, three weeks, end of study
Description: SCID mice bearing Hep3B SC tumors (tumor size range 140-227 mm^3; average=183 mm^3) were dosed over a three week period with a combination of 0.5% methyl cellulose daily and SQT IV at 1.5 mg/kg alone weekly (Days 1, 8 and 15; Group 1), Sorafenib (in 0.5% methyl cellulose) at 10 mg/kg orally daily alone (Group 2), mmRNA encoding SQT-PUMA-BH3 (comprising a miR122 binding site) weekly at 1.5 mg/kg IV alone (Group 3) or a combination of mmRNA encoding SQT-PUMA-BH3 (with miR122 binding site) at 1.5 mg/kg IV weekly with sorafenib at 10 mg/kg orally daily (Group 4; 10 animals per group).

## Nc1ccn([C@@H]2O[C@H](CO)[C@@H](O)[C@@H]2O)c(=O)n1 [cytarabine, reference compound]
[1]
  systemic tumor growth (BLI): did inhibit systemic tumor growth

## CNC(=O)c1cc(Oc2ccc(NC(=O)Nc3ccc(Cl)c(C(F)(F)F)c3)cc2)ccn1 [sorafenib, reference compound]
[2]
  MCL1 level (Western blotting): downregulates MCL1
[3]
  tumor growth inhibition (TGI): 38%
